From patent publication US20090023884A1, “METHOD FOR STORAGE AND/OR TRANSPORT OF BISPHENOLACETONE AND METHOD FOR PRODUCING AROMATIC POLYCARBONATE” (priority 2007, published 2009)

Tests used:
Format in all cases: physicochemical
[1] = Solubility experiments: BPA dissolved in acetone or phenol in oil bath at set temperature; conditions: weight ratio BPA to solvent 7.5/2.5
Description: 0.6 gram of bisphenolacetone (BPA) powder was placed in a 10 ml graduated tube with a thread seal. Prior to the experiment, BPA flakes were crushed to said powder to ensure uniform packing density at the bottom of the tube. Then 0.2 gram of a solvent was added to the BPA. The solvent was either acetone (present invention) or phenol (comparative). Thus, the weight ratio of BPA to solvent was 7.5/2.5. The tube was then immersed in an oil bath at a certain temperature, and mixed up to full equilibrium. The foregoing was repeated except that the temperature of the oil bath was set at different values. Table 1 mentions the amounts of BPA dissolved in either acetone or phenol at temperatures ranging from 30 to 110° C. The amount of BPA dissolved was calculated from the loss of BPA from the solids layer at the bottom of the tube.

[2] = Stability experiments: 4-isopropenyl phenol (IPP) formation in BPA solutions by GC-MS; conditions: for IPP signal intensity where solvent is acetone / IPP signal intensity where solvent is phenol: BPA:solvent 6:4 by weight, GC-MS m/z=134 relative to untreated standard BPA sample
Description: BPA and a solvent were mixed to produce solutions (containing no solids) having a weight ratio of BPA to solvent of 6:4. The solvent was either acetone (present invention) or phenol (comparative). Where the solvent was acetone the solution was obtained at a temperature of 35° C. and then kept at that temperature. However, in view of the above solubility experiments, where the solvent was phenol the solution could only be obtained at a temperature of 120° C. and was then kept at that temperature. The solutions were heated for a certain time period (3, 7 or 14 days) at either 35° C. (acetone) or 120° C. (phenol). At the end of each time period, the amount of 4-isopropenyl phenol (IPP) was determined by means of GC-MS. Table 2 mentions the intensity of the GC-MS signal at m/z=134, which signal is characteristic for IPP, relative to a standard BPA sample that had not been subjected to said temperature treatment.

[3] = Extended storage of acetone/bisphenolacetone liquid mixture at storage temperature range; conditions: liquid mixture with acetone

CC(C)(c1ccc(O)cc1)c1ccc(O)cc1 [BPA, 2,2-bis(4-hydroxyphenyl)propane]
Vol. % of BPA dissolved in acetone ([1]; 30 °C): 61 Vol. %
Vol. % of BPA dissolved in acetone ([1]; 60 °C): 72 Vol. %
Vol. % of BPA dissolved in phenol ([1]; 60 °C): 0 Vol. %
Vol. % of BPA dissolved in acetone ([1]; 75 °C): 72 Vol. %
Vol. % of BPA dissolved in phenol ([1]; 75 °C): 0 Vol. %
Vol. % of BPA dissolved in acetone ([1]; 90 °C): 74 Vol. %
Vol. % of BPA dissolved in phenol ([1]; 90 °C): 0 Vol. %
Vol. % of BPA dissolved in acetone ([1]; 110 °C): 74 Vol. %
Vol. % of BPA dissolved in phenol ([1]; 110 °C): 61 Vol. %
IPP signal intensity where solvent is acetone ([2]; 3 days at 35 °C): 0.1
IPP signal intensity where solvent is phenol ([2]; 3 days at 120 °C): 14.8
IPP signal intensity where solvent is acetone ([2]; 7 days at 35 °C): 0.0
IPP signal intensity where solvent is phenol ([2]; 7 days at 120 °C): 22.3
IPP signal intensity where solvent is acetone ([2]; 14 days at 35 °C): 0.0
IPP signal intensity where solvent is phenol ([2]; 14 days at 120 °C): 35.0
thermal degradation of BPA ([2]; solution in acetone, storage at 35 °C): does not result in any substantial thermal degradation
thermal degradation of BPA into IPP ([2]; solvent phenol, solution kept at 120 °C): thermally degraded into IPP
bisphenolacetone and solution properties upon extended storage [3]: remain unchanged
